How the values were obtained:
[1] = molecular target: T1, human Glyceraldehyde 3-Phosphate Dehydrogenase (HsGAPDH) (Homo sapiens, UniProt P04406); assay: UV photoaffinity crosslinking ([…]) with anti-SA immunoblot; type: binding
T1 construct: gene GAPDH; N-terminally His-tagged human GAPDH, expressed in E. coli

[2] = molecular target: T1, human Glyceraldehyde 3-Phosphate Dehydrogenase (HsGAPDH); assay: SPR competition with immobilized 3AESA; competition of 4AzSA photoaffinity crosslinking; type: binding

T1 sequence (P04406 whole entry): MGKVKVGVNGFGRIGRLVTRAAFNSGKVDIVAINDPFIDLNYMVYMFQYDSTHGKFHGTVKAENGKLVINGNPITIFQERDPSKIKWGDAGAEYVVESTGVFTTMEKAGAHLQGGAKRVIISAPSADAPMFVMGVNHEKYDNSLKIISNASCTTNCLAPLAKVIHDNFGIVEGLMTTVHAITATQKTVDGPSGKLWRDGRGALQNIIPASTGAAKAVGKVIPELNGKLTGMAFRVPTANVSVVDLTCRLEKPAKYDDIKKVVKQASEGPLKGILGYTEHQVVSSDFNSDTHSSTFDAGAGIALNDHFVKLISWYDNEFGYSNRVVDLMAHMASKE

Row | Compound | UV photoaffinity crosslinking (0.05 mM) with anti-SA immunoblot [1] | SPR competition with immobilized 3AESA; competition of 4AzSA photoaffinity cross [2]
1 | [N-]=[N+]=Nc1ccc(C(=O)O)c(O)c1 [4AzSA, 4-azido salicylic acid] | Recombinant HsGAPDH crosslinked with 4AzSA, and this crosslinking was suppressed in the presence of increasing levels of SA. | 
2 | O=C(O)c1ccccc1O [SA, Salicylic acid] |  | suppression of this interaction required millimolar concentrations of SA (Fig 2B)

Reference: publication PMC4659538, “Human GAPDH Is a Target of Aspirin’s Primary Metabolite Salicylic Acid and Its Derivatives” (PLoS ONE, 2015)
